Assay results as given in ChEMBL document CHEMBL5725928, “Substituted 4,5,6,7-tetrahydropyrazolo[1,5-A]pyrazine derivatives as casein kinase 1 D/E inhibitors” (2017).

These molecules were tested against Casein kinase I isoform epsilon (Homo sapiens, UniProt P49674) (assay: Kinase Assay: The kinase assay was performed in V-bottom 384-well plates. The final assay volume was 30 μl prepared from 15 μl additions of enzyme, substrates (fluoresceinated peptide FL-AHA-KRRRAL-PSER-VASLPGL-OH and ATP) and test compounds in assay buffer (20 mM HEPES pH 7.4, 30 mM MgCl2, 0.015% Brij35 and 4 mM DTT). The reaction was incubated at room temperature for 22 hours and terminated by adding 45 μl of 35 mM EDTA to each sample. The reaction mixture was analyzed on the Caliper LABCHIP®3000 (Caliper, Hopkinton, Mass.) by electrophoretic separation of the unphosphorylated substrate and phosphorylated product. […] The final concentration of reagents in the assay were 200 pM CK1ε or CK1δ, 50 μM ATP, 1.5 μM FL-AHA-KRRRAL-PSER-VASLPGL-OH, and 1.6% DMSO. Dose response curves were generated to determine the concentration required to inhibit 50% of the kinase activity (IC50). Compounds were dissolved at 10 mM in dimethylsulfoxide (DMSO) and evaluated at eleven concentrations. IC50 values were derived by non-linear regression analysis.).
Casein kinase I isoform epsilon, sequence (P49674 whole entry, canonical isoform): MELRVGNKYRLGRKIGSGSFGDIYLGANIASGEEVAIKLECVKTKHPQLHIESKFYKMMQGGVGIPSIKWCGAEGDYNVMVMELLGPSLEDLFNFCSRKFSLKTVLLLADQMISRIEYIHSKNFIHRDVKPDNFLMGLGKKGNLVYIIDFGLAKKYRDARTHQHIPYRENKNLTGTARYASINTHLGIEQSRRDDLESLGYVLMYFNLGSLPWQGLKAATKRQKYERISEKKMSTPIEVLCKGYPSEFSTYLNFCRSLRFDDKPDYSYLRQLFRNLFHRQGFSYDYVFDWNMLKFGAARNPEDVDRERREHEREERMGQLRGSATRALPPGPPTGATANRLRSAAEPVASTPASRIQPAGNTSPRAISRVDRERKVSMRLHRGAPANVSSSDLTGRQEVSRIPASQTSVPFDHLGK

Row | IC50 [nM] | Compound
1 | < 10 | NC(=O)c1c(-c2ccc(F)c(Cl)c2)nn2c1CN(C(=O)Nc1cc(F)cc(C(F)(F)F)c1)CC2
2 | < 10 | NC(=O)c1c(-c2ccc(F)c(Cl)c2)nn2c1CN(C(=O)Nc1ccc3c(c1)S(=O)(=O)C=C3)CC2
3 | < 10 | NC(=O)c1c(-c2ccc(Cl)c(F)c2)nn2c1CN(C(=O)Nc1ccc(Cl)c(Cl)c1)CC2
4 | < 10 | Cc1nc(-c2ccc(NC(=O)N3CCn4nc(-c5ccc(F)c(Cl)c5)c(C(N)=O)c4C3)cc2)cs1
5 | < 10 | Cc1nc(-c2ccc(NC(=O)N3CCn4nc(-c5cccc(F)c5)c(C(N)=O)c4C3)cc2)cs1
6 | < 10 | NC(=O)c1c(-c2cccc(F)c2)nn2c1CN(C(=O)Nc1cc(Cl)cc(Cl)c1)CC2
7 | < 10 | N#Cc1ccc(NC(=O)N2CCn3nc(-c4cccc(Cl)c4)c(C(N)=O)c3C2)cc1N1CCOCC1
8 | < 10 | NC(=O)c1c(-c2ccc(F)c(Cl)c2)nn2c1CN(C(=O)Nc1ccc(F)cc1)CC2
9 | < 10 | COc1cccc(-c2nn3c(c2C(N)=O)CN(C(=O)Nc2ccc(C#N)cc2)CC3)c1
10 | < 10 | NC(=O)c1c(-c2cccc(F)c2)nn2c1CN(C(=O)NC1C3CC4CC(C3)CC1C4)CC2 (stereo not drawn)
11 | < 10 | NC(=O)c1c(-c2cc(F)cc(Cl)c2)nn2c1CN(C(=O)Nc1cc(F)cc(C(F)(F)F)c1)CC2
12 | < 10 | Cc1ncc(-c2ccc(NC(=O)N3CCn4nc(-c5cccc(F)c5)c(C(N)=O)c4C3)cc2)o1

Row | Compound | IC50 [nM]
13 | N#Cc1ccc(NC(=O)N2CCn3nc(-c4cnc(F)c(Cl)c4)c(C(N)=O)c3C2)cc1C(F)(F)F | < 10
